Measurements as given in patent US7504231B2, “Method of alleviating chronic pain via peripheral inhibition of neurotransmitter synthesis” (The Board of Regents of the University of Oklahoma, priority 2001, dated 2009).
Entries after “also recorded” stand apart in the source; their conditions may differ.

Assays:
[1] = tested on: CFA induced inflammation of the rat hindpaw (mechanical allodynia); assay: Pressure sensitivity with von Frey hairs (paw pressure withdrawal threshold) in rats with CFA hindpaw inflammation; assay type: in vivo; conditions: for Paw pressure withdrawal thresholds (PPWT): CFA+saline 5-12 g, control 50-70 g
Method: (§1) For the experiments described in FIGS. 1-16, adult Sprague Dawley male rats, 200-300 g, were used. One set of normal rats was used to evaluate the effects of fixation on glutaminase immunohistochemical staining and for determining antisera dilutions. For all other rats, at day 0, a limited arthritis was induced in the right hindpaw by the intraplantar subcutaneous injection of 75-150 μl of complete Freund's adjuvant (CFA; Mycobacterium butyricum; Sigma) emulsified in saline (1:1). Controls were naive rats that received no injection or rats that received intraplantar injection of saline (75 μl). For peripheral glutaminase inhibition studies, the inflamed hindpaws were injected with glutaminase inhibitors (25 μl) at day 3 of inflammation. Some rats with inflammation received saline injections (25 μl) into the inflamed hindpaw at day 3. […] Efforts were made to minimize the number of animals used for this study.
Two to three days prior to and for the days following CFA injection, rats were tested for pressure sensitivity with von Frey hairs (Semmes-Weinstein monofilaments; Stoelting, Inc.). […] Monofilaments calibrated for specific forces were inserted through the holes underneath the box to probe the plantar surface of the hindpaw, 5 times in 3-4 sec intervals in different places on the plantar surface. Filaments with light force were used first, followed by filaments of increasing force. A filament was slowly applied perpendicularly to the plantar surface until bending of the filament occurred. […] The threshold force was defined as the filament (force) that caused the foot retraction without bending the monofilament three out of five times. Using a conversion table for the filaments, thresholds were reported as gram force.

[2] = tested on: CFA induced inflammation of the rat hindpaw (thermal hyperalgesia); assay: Thermal latencies (Hargreaves' model) in rats with CFA hindpaw inflammation; assay type: in vivo
Method: as §1
Thermal latencies for the footpad plantar surface were determined with the Hargreaves' model (Ugo Basile, Italy). Rats were placed on an elevated glass plate (3 mm) in clear plastic boxes with air holes in the lids and allowed to acclimate for 10 minutes. Radiant heat was applied to the plantar surface of the hindpaw and the withdrawal latency recorded. A second test was followed after 5-10 minutes. All behavioral testing occurred at 21-22° C. with indirect lighting in the testing room. Differences between groups for pressure thresholds and thermal latencies were determined with a Student's t test (p<0.05 for significance) using InStat biological statistics program (GraphPad Software, Inc., San Diego).

[3] = tested on: CFA induced inflammation of the rat hindpaw (mechanical allodynia); assay: Pressure sensitivity with von Frey hairs (paw pressure withdrawal threshold) in rats with CFA hindpaw inflammation; assay type: in vivo; conditions: for pressure responses after intrathecal inhibitor: injected intrathecally prior to initiation of CFA inflammation, tested 4 days, before ~70 gms, CFA ~10 gms
hindpaw of normal rats = assay: DON controls: pressure and thermal sensitivities after intraplantar injection in normal rats; assay type: in vivo, rat; conditions: DON 10 μMole/25 μl injected on day 3, no inflammation
Method: FIG. 10 illustrates DON controls.
Two to three days prior to and for the days following CFA injection, rats were tested for pressure sensitivity with von Frey hairs (Semmes-Weinstein monofilaments; Stoelting, Inc.). Rats were allowed to acclimate for five to ten minutes in a plastic box (25×25×25 cm) with 6 mm holes spaced every 6 mm [Pitcher et al, 1999a,b]. Monofilaments calibrated for specific forces were inserted through the holes underneath the box to probe the plantar surface of the hindpaw, 5 times in 3-4 sec intervals in different places on the plantar surface. Filaments with light force were used first, followed by filaments of increasing force. A filament was slowly applied perpendicularly to the plantar surface until bending of the filament occurred. […] The threshold force was defined as the filament (force) that caused the foot retraction without bending the monofilament three out of five times. […]
Thermal latencies for the footpad plantar surface were determined with the Hargreaves' model (Ugo Basile, Italy). […] Radiant heat was applied to the plantar surface of the hindpaw and the withdrawal latency recorded. […] Differences between groups for pressure thresholds and thermal latencies were determined with a Student's t test (p<0.05 for significance) using InStat biological statistics program (GraphPad Software, Inc., San Diego).

[4] = tested on: GLU-IR fibers in the paw skin; assay: Glutamate immunohistochemistry of hindpaw skin after CFA inflammation; assay type: in vivo, rat; conditions: CFA + inhibitor, skin after 7 days; control very little, CFA+saline many intense fibers
Method: (§2) The skin from the hindpaws were also processed for GLU and GT immunohistochemistry after 7 days (FIG. 12). Control rats had very little GLU or GT-immunoreactive (IR) fibers in the paw skin. Skin from CFA+saline rats contained many intense GLU-IR and GT-IR fibers.
(§3) For immunohistochemical localization of GT, rats at 3, 7, and 10 days (n=6 CFA/time pt; n=4 control/time pt; n=3 additional controls) were anesthetized with sodium pentobarbital (90 mg/kg) and transcardially perfused with fixative: 0.2% paraformaldehyde (PFA), […] (PA) in 0.1M phosphate buffer, pH 7.4 [Miller et al, 1993, 2002]. Right and left L4DRG's and hindpaws were removed and placed overnight in fixative at 4° C.; the PFA concentration was increased to 2% for post-fixation [Miller et al, 1993, 2002]. Additional control rats (n=3) were perfused transcardially with 4% PFA in 0.1M Sorenson's phosphate buffer, pH 7.4. DRG's were removed and placed in fixative overnight at 4° C. All tissues were transferred to 20% sucrose in 0.1M Sorenson's phosphate buffer, pH 7.4 for 24-96 hr. at 4° C. The tissue was frozen, sectioned at 20 μm in a cryostat, thaw mounted onto gelatin coated slides, and dried for 1 hr. at 37° C. […]

[5] = tested on: GT-IR fibers in the paw skin; assay: Glutaminase immunohistochemistry of hindpaw skin after CFA inflammation; assay type: in vivo, rat; conditions: CFA + inhibitor, skin after 7 days; control very little, CFA+saline many intense fibers
Method: as §2, §3

[6] = BB 200 μM/25 μl at day three following CFA inflammation
[7] = NEM 10 mM/25 μl at day three following CFA inflammation
[8] = P-CoA 2 mM/25 μl at day three following CFA inflammation

Cc1c(C2(c3cc(C(C)C)c(O)c(Br)c3C)OS(=O)(=O)c3ccccc32)cc(C(C)C)c(O)c1Br [BB, bromothymol blue]
long term pain relief to pressure (mechanical stimulation) [1, 6]: pain relief on Day 5
long term pain relief to heat (thermal stimulation) [2, 6]: pain relief from Days 5-7 and at near normal levels from Days 6 and 7

O=c1oc2ccccc2c(O)c1Cc1c(O)c2ccccc2oc1=O [DC, dicoumarol]
Thermal latencies (hyperalgesia) as inflammation progressed ([2]; dicoumarol 15 μl @ 500 μM i.t. on days 0, 1 and 2, CFA at Day 0): less hyperalgesic
pressure responses (allodynia) as inflammation progressed ([3]; dicoumarol 15 μl @ 500 μM i.t. on days 0, 1 and 2, CFA at Day 0, data not shown): less hyperalgesic and allodynic

[N-]=[N+]=CC(=O)CC[C@H](N)C(=O)O [DON, 6-diazo-5-oxo-L-norleucine]
Paw pressure withdrawal thresholds (PPWT) ([1]; CFA+DON rats, 25 μl into right paw after 2-3 days, from 6 hours through the duration of the experiment): 20 to 30 g
dose response for pain relief from pressure, area under the curve Day 3 to Day 5 ([1]; DON 0.1-10 μMole/25 μl): No differences in the amount of pain relief
long term pain relief to pressure (mechanical stimulation) ([1]; DON 0.1-10 μMole/25 μl, three doses, at day three following CFA inflammation): pain relief occurred for several days
dose response for pain relief from thermal stimulation, area under the curve Day 3 to Day 5 ([2]; DON 0.1-10 μMole/25 μl): most efficacious at the higher doses
long term pain relief to heat (thermal stimulation) ([2]; DON 0.1-10 μMole/25 μl, all three doses, at day 3 after CFA inflammation): pain relief occurred for several days
pain relief to heat (thermal responses) ([2]; DON 0.1 and 1 μMole at day 3 after CFA inflammation): pain relief to near normal levels for at least one day
pain relief to heat (thermal responses) ([2]; DON 10 μMole at day 3 after CFA inflammation): bringing thermal responses back to normal for two days
pressure sensitivity in normal rats (hindpaw of normal rats): same as saline controls
thermal sensitivity in normal rats (hindpaw of normal rats): same as saline controls
GLU-IR fibers in hindpaw skin [4]: reduced to near normal levels; also recorded: moderate numbers
GT-IR fibers in hindpaw skin [5]: moderate numbers
pressure responses after intrathecal inhibitor [3]: near normal pressure responses for several days

O=C(O)CF [FA, fluoroacetate]
pressure responses after intrathecal inhibitor [3]: near normal pressure responses for several days

CS(=N)(=O)CC[C@H](N)C(=O)O (stereo partly drawn) [MSO, methionine sulfoximine]
pressure responses ([1]; MSO injected into inflamed hindpaw at Day 3, one-time, over several days, before inflammation ~70 gms, after ~10 gms): ~50 gms
Thermal responses ([2]; MSO injected into inflamed hindpaw at Day 3, one-time, before inflammation ~9 sec, after ~3 sec): near normal levels by day 6 through day 9
pressure responses after intrathecal inhibitor [3]: near normal pressure responses for several days

CCN1C(=O)C=CC1=O [NEM, N-ethylmaleimide]
Paw pressure withdrawal thresholds (PPWT) ([1]; CFA+NEM rats, after 48 hours): 20 to 25 g
long term pain relief to pressure (mechanical stimulation) [1, 7]: pain relief occurred for several days
long term pain relief to heat (thermal stimulation) [2, 7]: pain relief occurred to near normal levels at days four and six
GLU-IR fibers in hindpaw skin [4]: reduced to near normal levels; also recorded: moderate numbers
GT-IR fibers in hindpaw skin [5]: moderate numbers

CCCCCCCCCCCCCCCC(=O)SCCNC(=O)CCNC(=O)[C@H](O)C(C)(C)COP(=O)(O)OP(=O)(O)OC[C@H]1O[C@@H](n2cnc3c(N)ncnc32)[C@H](O)[C@@H]1OP(=O)(O)O [P-CoA, Palmitoyl Coenzyme A]
long term pain relief to pressure (mechanical stimulation) [1, 8]: pain relief from Days 4-7
long term pain relief to heat (thermal stimulation) [2, 8]: pain relief to near normal levels from Days 4-7
